Results on two compounds are retold here after patent publication US10646494B2, “Heterocycle-substituted tetracyclic compounds and methods of use thereof for the treatment of viral diseases” (Merck Sharp & Dohme Corp., priority 2016, dated 2020).

Common to all, as to parameters: species or system Hepatitis C virus (HCV)
In one experiment the test system is HCV replicon 1A. The experiment in a line: Cell-based HCV replicon assay (Replicon Assay A), replicon 1A. As to conditions: replicon RNA by real time PCR, cells harvested on day 3. The method, then:
(§1) To measure cell-based anti-HCV activity of compounds of the present invention, two complimentary assays were employed using various replicons. In the first assay (“Replicon Assay A”), replicon cells were seeded at 2000 cells/well in 384-well 384-well flat bottom tissue culture treated clear bottom plate (Corning 3707) in the presence of the test compound. Various concentrations of test compound, typically in 10 serial dilutions, were added to the assay mixture, with the starting concentration ranging from 333.3 nM to […]. The final concentration of DMSO was 0.5%. Fetal bovine serum was 5%, in the assay media. Cells were harvested on day 3 by removing media and washing the cells with a suitable wash buffer. The cells are lysed with the addition of 1× Qiagen lysis buffer (Cat #1062731). The replicon RNA level was measured using real time PCR (TaqMan® EZ RT-PCR, Applied Biosystems 403028) with the following primers and probes: […]
(§2) Cyclophilin RNA was used as endogenous control and was amplified in the same reaction as NS5B (multiplex PCR). The real-time RT-PCR reactions were run on ABI PRISM 7900HT Sequence Detection System using the following program: 50° C. for 2 minutes, 60° C. for 30 minutes, 95° C. for 5 minutes, 40 cycles of 94° C. for 20 sec, 55° C. for 1 minutes.
(§3) The amount of HCV replicon RNA per cell is quantified using a linear regression curve for a known nanogram (ng) amount of HCV replicon total RNA. This is established by plotting the Cycle Threshold values (Ct) from the Neo probe and primer set versus the log (ng) for each HCV replicon total RNA standard. The amount of HCV RNA for each replicon sample is calculated by taking the sample's Ct value, minus the line intercept, divided by the slope of the line. Similarly, the amount of Cyclophilin mRNA per cell is also quantified using a linear regression curve for a known nanogram (ng) amount of HCV replicon total RNA. Again, this is established by plotting the Cycle Threshold values (Ct) from the Cyclophilin probe and primer set versus the log (ng) for each HCV replicon total RNA standard.
(§4) Data was obtained for various compounds of the present invention using the methods described in the Example above, and is presented in the table immediately below. Data for replicons 1A, 1AY93H and 2B were obtained using Replicon Assay A and data for replicons 1B were obtained using Replicon Assay B.
Background: A replicon is a self-replicating genome or part of one, used to study replication in cells.

The test system of a further experiment is HCV replicon 1B. The experiment can be described thus: Cell-based HCV replicon assay (Replicon Assay B), replicon 1B. As to conditions: Hepatitis C virus, 72 h, replicon RNA by real-time PCR, incubated for 3 days. On the procedure:
In an alternate assay (“Replicon Assay B”), 1000 cells were seeded per well in a 384-well collagen coated black plate from Greiner bio-one (Cat #781946) in 5% FBS. Inhibitors of this invention were added at 24 h post-seeding, and the plates were incubated for 3 days. Cells were subsequently lysed with Qiagen lysis buffer (Cat #1062731) to extract the RNA. HCV replicon RNA level was measured by real-time PCR using the RNA-to-CT kit from Applied Biosystem (Cat #4392656) and genotype-specific primers and probes. The amplicon was located within NSSB. The sequence of the PCR primers are as follows: 5B.2F, ATGGACAGGCGCCCTGA (SEQ. ID NO. 1); 5B.2R, […] (SEQ. ID NO. 2); the probe sequence was FAM-labeled CACGCCATGCGCTGCGG (SEQ. ID NO. 3). To detect genotype 1A the primer 1A F, TGCGGAACCGGTGAGTACA and 1A R, […] were used; the probe sequence was FAM-[…].
The real-time RT-PCR reactions were run on ABI PRISM 7900HT or Viia7 Sequence Detection System using the following program: 48° C. for 30 minutes, 95° C. for 10 minutes, 40 cycles of 95° C. for 15 sec, 60° C. for 1 minutes. The 50% effective concentration (EC50) was the drug concentration necessary to achieve an increase in the cycle threshold (CT) of 1 over the projected baseline CT.
as §4

For the next experiment, the system named is HCV replicon 2B. The experiment can be described thus: Cell-based HCV replicon assay (Replicon Assay A), replicon 2B. As to conditions: read-out: Replicon EC50 (nM) 2B, replicon 2B, replicon RNA by real time PCR, cells harvested on day 3. The method, then:
as §1, §2, §3, §4

Another experiment concerns HCV replicon 1A Y93H. The experiment in a line: Cell-based HCV replicon assay (Replicon Assay A), replicon 1AY93H. As to conditions: read-out: Replicon EC50 (nM) 1A Y93H, replicon 1A Y93H, replicon RNA by real time PCR, cells harvested on day 3. The method, then: as §1, §2, §3, §4

With `COC(=O)N[C@H](C(=O)N1CCC[C@H]1c1ncc(-c2cc(F)c3c(c2)OC(c2nc4ccccc4o2)n2c-3cc3cc(-c4cnc([C@@H]5CCCN5C(=O)[C@@H](NC(=O)OC)C(C)C)[nH]4)ccc32)[nH]1)C(C)C` (single isomer, unassigned) [Compound 20], the EC50 (as a rule, the concentration needed to bring the measured effect to its halfway point) in the experiment on HCV replicon 1A is 0.0023 nM; with HCV replicon 1B, 0.0026 nM; in the experiment on HCV replicon 2B, 0.32 nM; with HCV replicon 1A Y93H, 0.075 nM.
Take `COC(=O)N[C@H](C(=O)N1CCC[C@H]1c1ncc(-c2cc(F)c3c(c2)OC(c2cc(C(C)C)no2)n2c-3cc3cc(-c4cnc([C@@H]5CCCN5C(=O)[C@@H](NC(=O)OC)C(C)C)[nH]4)ccc32)[nH]1)C(C)C` (single isomer, unassigned) [Compound 25]: the half-maximal effective concentration (EC50) is 0.0012 nM with HCV replicon 1A (Hepatitis C virus, 72 h); 0.0011 nM in the experiment on HCV replicon 1B; 0.3 nM with HCV replicon 2B; 0.026 nM with HCV replicon 1A Y93H.
